Laboratory results as given in PubChem BioAssay AID1963850 (Molecular Pharmacology Branch, DTP, NCI, 2024).
pIC50: −log10 of the molar value.

System: 192522-019-R-J2-PDC complex tumor spheroid viability
Experiment: Anticancer human tumor 192522-019-R-J2-PDC patient-derived colon adenocarcinoma cell line growth inhibition [POLQ]
Conditions: for pIC50: curve of first compound; for viability, T/C: stronger effect = lower value
How it was run: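 Complex spheroid viability model combining PDC tumour cells with endothelial (HUVEC) and MSC stromal cells. Novobiocin, ART-558 or RP6685 were tested singly and in combination with standard and investigational anticancer drugs. Each was titrated in half-log steps from near clinical Cmax, or from 10 microM where Cmax was unknown.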

[1] = second compound 0.0316 µM, first compound 0.00316 µM
[2] = second compound 0.0316 µM, first compound 0.01 µM
[3] = second compound 0.0316 µM, first compound 0.0316 µM
[4] = second compound 0.0316 µM, first compound 0.1 µM
[5] = second compound 0.0316 µM, first compound 0.316 µM
[6] = second compound 0.0316 µM, first compound 1 µM
[7] = second compound 0.1 µM, first compound 0.00316 µM
[8] = second compound 0.1 µM, first compound 0.01 µM
[9] = second compound 0.1 µM, first compound 0.0316 µM
[10] = second compound 0.1 µM, first compound 0.1 µM
[11] = second compound 0.1 µM, first compound 0.316 µM
[12] = second compound 0.1 µM, first compound 1 µM
[13] = second compound 0.316 µM, first compound 0.00316 µM
[14] = second compound 0.316 µM, first compound 0.01 µM
[15] = second compound 0.316 µM, first compound 0.0316 µM
[16] = second compound 0.316 µM, first compound 0.1 µM
[17] = second compound 0.316 µM, first compound 0.316 µM
[18] = second compound 0.316 µM, first compound 1 µM
[19] = second compound 1 µM, first compound 0.00316 µM
[20] = second compound 1 µM, first compound 0.01 µM
[21] = second compound 1 µM, first compound 0.0316 µM
[22] = second compound 1 µM, first compound 0.1 µM
[23] = second compound 1 µM, first compound 0.316 µM
[24] = second compound 1 µM, first compound 1 µM
[25] = second compound 3.16 µM, first compound 0.00316 µM
[26] = second compound 3.16 µM, first compound 0.01 µM
[27] = second compound 3.16 µM, first compound 0.0316 µM
[28] = second compound 3.16 µM, first compound 0.1 µM
[29] = second compound 3.16 µM, first compound 0.316 µM
[30] = second compound 3.16 µM, first compound 1 µM
[31] = second compound 10 µM, first compound 0.00316 µM
[32] = second compound 10 µM, first compound 0.01 µM
[33] = second compound 10 µM, first compound 0.0316 µM
[34] = second compound 10 µM, first compound 0.1 µM
[35] = second compound 10 µM, first compound 0.316 µM
[36] = second compound 10 µM, first compound 1 µM
[37] = second compound 0.0316 µM, first compound 3.16 µM
[38] = second compound 0.0316 µM, first compound 10 µM
[39] = second compound 0.1 µM, first compound 3.16 µM
[40] = second compound 0.1 µM, first compound 10 µM
[41] = second compound 0.316 µM, first compound 3.16 µM
[42] = second compound 0.316 µM, first compound 10 µM
[43] = second compound 1 µM, first compound 3.16 µM
[44] = second compound 1 µM, first compound 10 µM
[45] = second compound 3.16 µM, first compound 3.16 µM
[46] = second compound 3.16 µM, first compound 10 µM
[47] = second compound 10 µM, first compound 3.16 µM
[48] = second compound 10 µM, first compound 10 µM
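Also: spheroids exposed to drugs for seven days before reading.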
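For viability, T/C in this document: 100% = DMSO vehicle control viability in luminescence.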

Work on `C=CCn1c(=O)c2cnc(Nc3ccc(N4CCN(C)CC4)cc3)nc2n1-c1cccc(C(C)(C)O)n1` + Nc1ccc(C#CCN(C(=O)Cc2ncc(C(F)(F)F)cc2C(F)(F)F)c2ccc(F)cc2)nn1 yielded a pIC50 (second compound 0.0316 µM) of 6.14, a pIC50 (second compound 0.1 µM) of 6.12 and a pIC50 (second compound 0.316 µM) of 6.10. The pIC50 (second compound 1 µM) was 6.11, the pIC50 (second compound 3.16 µM) was 6.05 and the pIC50 (second compound 10 µM) was 6.08. The viability, T/C [1] was 104%, the viability, T/C [2] was 103% and the viability, T/C [3] was 93%. It also gave a viability, T/C [4] of 91.8%, a viability, T/C [5] of 92.4% and a viability, T/C [6] of 34.1%. It also gave a viability, T/C [7] of 107%, a viability, T/C [8] of 103% and a viability, T/C [9] of 97.5%. It also gave a viability, T/C [10] of 96.6%, a viability, T/C [11] of 93.2% and a viability, T/C [12] of 35.9%. The viability, T/C [13] was 105%, the viability, T/C [14] was 97.4% and the viability, T/C [15] was 92.3%. The viability, T/C [16] was 99.8%, the viability, T/C [17] was 93% and the viability, T/C [18] was 39.5%. The viability, T/C [19] was 103%, the viability, T/C [20] was 108% and the viability, T/C [21] was 102%. The viability, T/C [22] was 95.2%, the viability, T/C [23] was 89.7% and the viability, T/C [24] was 39%. For the same compound, the viability, T/C [25] was 108%, the viability, T/C [26] was 101% and the viability, T/C [27] was 104%. It also gave a viability, T/C [28] of 94.8%, a viability, T/C [29] of 97.8% and a viability, T/C [30] of 45.3%. It also gave a viability, T/C [31] of 112%, a viability, T/C [32] of 113% and a viability, T/C [33] of 110%. For the same compound, the viability, T/C [34] was 106%, the viability, T/C [35] was 98.5% and the viability, T/C [36] was 40.2%.

For `CCc1c2c(nc3ccc(O)cc13)-c1cc3c(c(=O)n1C2)COC(=O)[C@]3(O)CC` + Nc1ccc(C#CCN(C(=O)Cc2ncc(C(F)(F)F)cc2C(F)(F)F)c2ccc(F)cc2)nn1, the pIC50 (second compound 0.0316 µM) was 6.63, the pIC50 (second compound 0.1 µM) was 6.75 and the pIC50 (second compound 0.316 µM) was 6.69. For the same compound, the pIC50 (second compound 1 µM) was 6.89, the pIC50 (second compound 3.16 µM) was 6.80 and the pIC50 (second compound 10 µM) was 6.95. It also gave a viability, T/C [1] of 92.1%, a viability, T/C [2] of 75.4% and a viability, T/C [3] of 70.3%. The viability, T/C [4] was 62.1%, the viability, T/C [5] was 44.2% and the viability, T/C [6] was 35.7%. It also gave a viability, T/C [7] of 94.8%, a viability, T/C [8] of 77.6% and a viability, T/C [9] of 78.6%. It also gave a viability, T/C [10] of 60%, a viability, T/C [11] of 38.1% and a viability, T/C [12] of 31%. It also gave a viability, T/C [13] of 99%, a viability, T/C [14] of 76.2% and a viability, T/C [15] of 78.8%. The viability, T/C [16] was 57%, the viability, T/C [17] was 43.5% and the viability, T/C [18] was 31.9%. The viability, T/C [19] was 103%, the viability, T/C [20] was 71.5% and the viability, T/C [21] was 69.8%. The viability, T/C [22] was 57.6%, the viability, T/C [23] was 36.4% and the viability, T/C [24] was 31%. The viability, T/C [25] was 96.9%, the viability, T/C [26] was 79.8% and the viability, T/C [27] was 72.5%. It also gave a viability, T/C [28] of 56%, a viability, T/C [29] of 39.4% and a viability, T/C [30] of 36.5%. For the same compound, the viability, T/C [31] was 94%, the viability, T/C [32] was 76.7% and the viability, T/C [33] was 71.5%. It also gave a viability, T/C [34] of 50.6%, a viability, T/C [35] of 36.2% and a viability, T/C [36] of 34.4%.

`CNCc1ccc(-c2[nH]c3cc(F)cc4c3c2CCNC4=O)cc1` + Nc1ccc(C#CCN(C(=O)Cc2ncc(C(F)(F)F)cc2C(F)(F)F)c2ccc(F)cc2)nn1 was tested, and the pIC50 (second compound 0.0316 µM) was under 5.00, the pIC50 (second compound 0.1 µM) was under 5.00 and the pIC50 (second compound 0.316 µM) was under 5.00. For the same compound, the pIC50 (second compound 1 µM) was under 5.00, the pIC50 (second compound 3.16 µM) was under 5.00 and the pIC50 (second compound 10 µM) was under 5.00. The viability, T/C [3] was 103%, the viability, T/C [4] was 106% and the viability, T/C [5] was 102%. It also gave a viability, T/C [6] of 113%, a viability, T/C [37] of 122% and a viability, T/C [38] of 111%. For the same compound, the viability, T/C [9] was 105%, the viability, T/C [10] was 98.7% and the viability, T/C [11] was 110%. For the same compound, the viability, T/C [12] was 102%, the viability, T/C [39] was 104% and the viability, T/C [40] was 105%. The viability, T/C [15] was 107%, the viability, T/C [16] was 106% and the viability, T/C [17] was 96.5%. It also gave a viability, T/C [18] of 103%, a viability, T/C [41] of 106% and a viability, T/C [42] of 107%. The viability, T/C [21] was 119%, the viability, T/C [22] was 100% and the viability, T/C [23] was 105%. The viability, T/C [24] was 104%, the viability, T/C [43] was 111% and the viability, T/C [44] was 107%. It also gave a viability, T/C [27] of 103%, a viability, T/C [28] of 108% and a viability, T/C [29] of 95.3%. It also gave a viability, T/C [30] of 104%, a viability, T/C [45] of 110% and a viability, T/C [46] of 101%. It also gave a viability, T/C [33] of 108%, a viability, T/C [34] of 101% and a viability, T/C [35] of 105%. It also gave a viability, T/C [36] of 102%, a viability, T/C [47] of 110% and a viability, T/C [48] of 106%.

`O=C(c1cc(Cc2n[nH]c(=O)c3ccccc23)ccc1F)N1CCN(C(=O)C2CC2)CC1` + Nc1ccc(C#CCN(C(=O)Cc2ncc(C(F)(F)F)cc2C(F)(F)F)c2ccc(F)cc2)nn1 showed a pIC50 (second compound 0.0316 µM) of under 5.00, a pIC50 (second compound 0.1 µM) of under 5.00 and a pIC50 (second compound 0.316 µM) of under 5.00. It also gave a pIC50 (second compound 1 µM) of under 5.00, a pIC50 (second compound 3.16 µM) of under 5.00 and a pIC50 (second compound 10 µM) of under 5.00. For the same compound, the viability, T/C [3] was 105%, the viability, T/C [4] was 116% and the viability, T/C [5] was 106%. It also gave a viability, T/C [6] of 105%, a viability, T/C [37] of 111% and a viability, T/C [38] of 104%. For the same compound, the viability, T/C [9] was 108%, the viability, T/C [10] was 104% and the viability, T/C [11] was 102%. The viability, T/C [12] was 102%, the viability, T/C [39] was 110% and the viability, T/C [40] was 105%. For the same compound, the viability, T/C [15] was 117%, the viability, T/C [16] was 105% and the viability, T/C [17] was 101%. It also gave a viability, T/C [18] of 112%, a viability, T/C [41] of 111% and a viability, T/C [42] of 95.6%. It also gave a viability, T/C [21] of 110%, a viability, T/C [22] of 102% and a viability, T/C [23] of 97.3%. The viability, T/C [24] was 104%, the viability, T/C [43] was 114% and the viability, T/C [44] was 106%. It also gave a viability, T/C [27] of 116%, a viability, T/C [28] of 104% and a viability, T/C [29] of 103%. The viability, T/C [30] was 105%, the viability, T/C [45] was 106% and the viability, T/C [46] was 113%. It also gave a viability, T/C [33] of 107%, a viability, T/C [34] of 111% and a viability, T/C [35] of 110%. It also gave a viability, T/C [36] of 103%, a viability, T/C [47] of 110% and a viability, T/C [48] of 110%.
